Measured values taken from patent US20200146989A1, “A CO-AMORPHOUS FORM OF A SUBSTANCE AND A DIPEPTIDE” (University of Copenhagen, priority 2016, published 2020).
Where “and” joins values, the source holds several entries; their conditions need not be identical. Identical values can stand only once. Values belong to the molecule of their own block, whether it stands above or below them.

Tests used:
Type in all cases: physicochemical
[1] = Intrinsic dissolution rate (IDR) of compressed disks; details: 0.01M phosphate buffer pH 7.2, 37° C., 100 rpm, triplicate
Method: For the intrinsic dissolution rate (IDR) studies, 150 mg of powder was compressed directly into stainless steel cylinders, which served as IDR sample holders, with a hydraulic press (Hydraulische Presse Model IXB-102-9, PerkinElmer, Ueberlingen, Germany). Disks of pure crystalline drug, pure amorphous drug, and the co-amorphous blends of respectively drug-AA, drug-AA-AA and drug-dipeptide, shown in table 1.1, were compressed at different compaction pressures between 124.9 MPa and 249.7 MPa for 60 seconds in order to obtain a stable compact with smooth surface.
For the dissolution experiment an Erweka DT70 dissolution tester (Erweka GmbH, Heusenstamm, Germany) was used. […] The samples were analyzed with the respective HPLC method for the different drugs as described below. […]
The IDR was calculated as the drug release per accessibility area (μg cm^−2). For this purpose the drug concentration at the different time points was analyzed with HPLC (μg mL-^1), multiplied with 900 ml and divided with the accessible surface area of the drug.
For the pure drugs the accessible area, was set to be the surface area of the compact (0.7854 cm^2). […] The corrected accessible surface area was calculated based on the accessibility area within the mixture. […] From the calculated drug volume and the total volume of the tablet the relative drug volume percentage could be determined. […]

[2] = Ease of amorphization by ball milling, checked by XRPD; parameters: key to Success in amorphization (yes/no): yes=y; no=n
Method: Amorphous and co-amorphous systems of the pure drugs and the binary and ternary mixtures with the amino acids or ASPA were prepared by vibrational ball milling.
The samples were prepared by placing a total amount of 500 mg of either the pure crystalline drug, mixtures of drug with one or two amino acids (molar ratio of either 1:1 or 1:1:1) or drug-dipeptides (1:1 molar ratio) in 25 ml milling jars containing two 12 mm stainless steel balls. The samples were milled at 30 Hz up to 180 min in an oscillatory ball mill (Mixer Mill MM400, Retch GmbH & Co, Haan, Germany) placed in a cooling room at 6° C.
(§1) The X-ray powder diffraction (XRPD) analysis was performed using a X'Pert Pro X-ray Diffractometer (PANalytical, Almelo, The Netherlands) using a Cu Kα radiation source (λ=1.54187 Å). An acceleration voltage and current of 45 kV and 40 mA were used. Samples were scanned in reflection mode between 5° and 35° 2θ with a scan speed of 0.0673° 2θ/s and a step size of 0.0262°. Data were collected and analyzed using the software X'Pert Data Collector (PANalytical, Almelo, The Netherlands). Samples were filled onto aluminum sample holders and gently compressed with a spatula, in order to contain a compacted and smooth surface.

[3] = Physical stability of amorphous and co-amorphous samples on dry storage, recrystallization detected by XRPD; details: for Stability at 40° C. / Stability at room temperature: dry conditions, amorphous halo in XRPD
Method: as §1, with “a X'Pert Pro X-ray” left out, “Å).” for “Å).”, “surface. The pure amorphous drugs and co-amorphous mixtures were stored under dry conditions in desiccators at room temperature and 40° C.” for “surface.”

[4] = Powder dissolution, miniaturized USP 2 set-up; details: 0.1 M phosphate buffer pH 6.8, 37° C.; for MEB concentration released after 20 min of dissolution: 100 rpm, 5 mg MEB in 100 ml
Method: Powder dissolution studies were performed in an ERWEKA DT70 dissolution tester (Heusenstamm, Germany) equipped with a custom-made miniaturized dissolution set-up described earlier [DOI: 10.1208/s12249-008-9161-6]. This set-up is a down-scaled version (the vessel size is 250 mL) of USP apparatus 2, and the hydrodynamics is essentially similar to the standard USP 2 apparatus. Pure drugs, drug-ASPA mixtures or drug-dipeptide mixtures containing an equivalent amount of 5 mg of MEB or 5 mg of TAD in total were placed in 100 ml of 0.1 M phosphate buffer (pH 6.8, 37° C.) and stirred at a rotation speed of 100 rpm. At predetermined time points (2, 5, 10, 20, 30, 60, 120, 180, 240, 300 and 360 min), 1 ml sample was withdrawn and immediately replaced with pre-warmed dissolution buffer. The obtained samples were quantified after filtration (0.45 μm) with the respective HPLC method for the different drugs as described below. All dissolution experiments were conducted in triplicate.
All samples from the dissolution studies were analyzed on a Dionex (Germering, Germany) HPLC system equipped with a P680 pump, an ASI-100 automated sample injector and a PDA 100 photodiode array detector was used. A reverse-phase Kinetex C18 ([…]×4.6 mm, 5 μm) column with UV detection at 240 nm for CRV, 264 nm for IND, 312 nm for MEB and 285 nm for TAD was used, with a constant flow rate of 1.0 ml min^−1 and an isocratic solvent system. The mobile phases (MP) consisted of 50% (V/V) phosphoric acid (pH=2) and 50% MeOH for the analysis of CRV, 25% (V/V) phosphoric acid (pH=2) and 75% MeOH for the analysis of IND, 47% (V/V) of 0.05 M KH2PO4, 20% (V/V) of acetonitrile and 33% (V/V) methanol for the analysis of MEB, 60% (V/V) 0.0724 M pH 6.8 phosphate buffer and 40% (V/V) of acetonitrile for the analysis of TAD, respectively. Chromatograms were analyzed by using Chromeleon Version 7.1.3.2425 software. […]

Success in amorphization (yes/no) ([2]; IND and CRV samples, ball milled 90 or 180 min, XRPD): y
Structure (SMILES): COc1ccccc1OCCNCC(O)COc1cccc2[nH]c3ccccc3c12 (centres unmarked) [CRV, Carvedilol]
intrinsic dissolution rate (IDR) ([1]; listed as amorphous CRV): 0.0086±0.001 mg cm^−2 min^−1 and 0.009±0.001 mg cm^−2 min^−1

intrinsic dissolution rate (IDR) [1]: 0.128±0.004 mg cm^−2 min^−1
Stability at 40° C. ([3]; IND and CRV): <7 days
Stability at room temperature ([3]; IND and CRV): <7 days
recrystallization peaks in the XRPD diffractograms within ([3]; storage at room temperature and 40° C. dry conditions, temperature not split in the sentence): ≤ 7 days
Structure (SMILES): COc1ccc2c(c1)c(CC(=O)O)c(C)n2C(=O)c1ccc(Cl)cc1 [IND, Indomethacin]

Stability at room temperature ([3]; MEB and TAD): >2 months
Milling time fully amorphization ([2]; MEB samples, XRPD at 30, 60, 90 and 180 min of ball milling): 60 min
Success in amorphization (yes/no) ([2]; MEB samples, ball milled, XRPD at 30, 60, 90 and 180 min): y
MEB concentration released after 20 min of dissolution ([4]; listed as amorphous MEB): 0.99 µg/mL
concentration after 240 min of dissolution as fold of crystalline MEB ([4]; 240 min): approx. 4.3 fold
Structure (SMILES): COC(=O)Nc1nc2ccc(C(=O)c3ccccc3)cc2[nH]1 [MEB, Mebendazole]

Stability at 40° C. ([3]; MEB and TAD): >2 months
Stability at room temperature ([3]; MEB and TAD): >2 months
Structure (SMILES): CN1CC(=O)N2[C@H](c3ccc4c(c3)OCO4)c3[nH]c4ccccc4c3C[C@@H]2C1=O [TAD, Tadalafil]

MEB concentration released after 20 min of dissolution [4]: 0.23 µg/mL
Structure (SMILES): COC(=O)Nc1nc2ccc(C(=O)c3ccccc3)cc2[nH]1 [crystalline MEB, Mebendazole]
